According to PubChem BioAssay (NCI):
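The concentration for 50% growth inhibition is given as GI50. At the TGI there is no net growth.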

Tests used:
Experiment in all cases: growth of human tumour cells (NCI), 384-well format
[1] = tested on: 786-0 renal
[2] = tested on: A498 renal
[3] = tested on: A549 NSCLC
[4] = tested on: ACHN renal
[5] = tested on: BT-549 breast
[6] = tested on: CAKI-1 renal
[7] = tested on: CCRF-CEM leukemia
[8] = tested on: COLO 205 colon
[9] = tested on: EKVX NSCLC
[10] = tested on: HCC-2998 colon
[11] = tested on: HCT-116 colon
[12] = tested on: HCT-15 colon
[13] = tested on: HL-60(TB) leukemia
[14] = tested on: HOP-62 NSCLC
[15] = tested on: HOP-92 NSCLC
[16] = tested on: HS 578T breast
[17] = tested on: HT29 colon
[18] = tested on: IGROV1 ovarian
[19] = tested on: K-562 leukemia
[20] = tested on: KM12 colon
[21] = tested on: M14 melanoma
[22] = tested on: MALME-3M melanoma
[23] = tested on: MCF7 breast
[24] = tested on: MDA-MB-435 melanoma
[25] = tested on: MDA-MB-468 breast
[26] = tested on: MOLT-4 leukemia
[27] = tested on: NCI-H226 lung

Q: For `COc1cc(C(=O)NC2CCN(C)CC2)ccc1Nc1ncc2c(n1)N(C1CCCC1)CC(F)(F)C(=O)N2C`, which GI50 [1] is on record?
A: 41 nM

Q: What about the TGI [1] of the same compound?
A: 1350 nM

Q: And the GI50 [2]?
A: 106 nM

Q: What about the TGI [2] of the same compound?
A: 12300 nM

Q: And the GI50 [3]?
A: < 10 nM

Q: And the TGI [3]?
A: 707 nM

Q: And the GI50 [4]?
A: 666 nM

Q: And the TGI [4]?
A: 14100 nM

Q: And the GI50 [5]?
A: 11.3 nM

Q: What about the TGI [5] of the same compound?
A: 159 nM

Q: What about the GI50 [6] of the same compound?
A: 194 nM

Q: And the TGI [6]?
A: 10600 nM

Q: And the GI50 [7]?
A: < 10 nM

Q: What about the TGI [7] of the same compound?
A: < 10 nM

Q: What about the GI50 [8] of the same compound?
A: < 10 nM

Q: What about the TGI [8] of the same compound?
A: 10700 nM

Q: What about the GI50 [9] of the same compound?
A: 79.3 nM

Q: And the TGI [9]?
A: 2700 nM

Q: What about the GI50 [10] of the same compound?
A: 11.6 nM

Q: What about the TGI [10] of the same compound?
A: 39.6 nM

Q: What about the GI50 [11] of the same compound?
A: < 10 nM

Q: What about the TGI [11] of the same compound?
A: 1170 nM

Q: And the GI50 [12]?
A: 219 nM

Q: And the TGI [12]?
A: 1220 nM

Q: What about the GI50 [13] of the same compound?
A: < 10 nM

Q: And the TGI [13]?
A: < 10 nM

Q: And the GI50 [14]?
A: < 10 nM

Q: And the TGI [14]?
A: 2210 nM

Q: What about the GI50 [15] of the same compound?
A: 20.7 nM

Q: And the TGI [15]?
A: 902 nM

Q: And the GI50 [16]?
A: < 10 nM

Q: What about the TGI [16] of the same compound?
A: 31.1 nM

Q: What about the GI50 [17] of the same compound?
A: < 10 nM

Q: What about the TGI [17] of the same compound?
A: 21.5 nM

Q: And the GI50 [18]?
A: 18.6 nM

Q: What about the TGI [18] of the same compound?
A: 2070 nM

Q: And the GI50 [19]?
A: < 10 nM

Q: What about the TGI [19] of the same compound?
A: 19.7 nM

Q: What about the GI50 [20] of the same compound?
A: < 10 nM

Q: And the TGI [20]?
A: 11200 nM

Q: And the GI50 [21]?
A: 12.5 nM

Q: And the TGI [21]?
A: 74.3 nM

Q: And the GI50 [22]?
A: 29.5 nM

Q: What about the TGI [22] of the same compound?
A: 1590 nM

Q: And the GI50 [23]?
A: < 10 nM

Q: What about the TGI [23] of the same compound?
A: 1440 nM

Q: And the GI50 [24]?
A: < 10 nM

Q: What about the TGI [24] of the same compound?
A: 12.2 nM

Q: What about the GI50 [25] of the same compound?
A: < 10 nM

Q: And the TGI [25]?
A: < 10 nM

Q: And the GI50 [26]?
A: < 10 nM

Q: What about the TGI [26] of the same compound?
A: < 10 nM

Q: And the GI50 [27]?
A: 1560 nM

Q: And the TGI [27]?
A: 6190 nM
